Data taken from patent US20060257535A1, “Milk mineral compositions for use with raw meat products” (Glanbia Nutritionals (Ireland) Limited, priority 2005, published 2006).

Assays:
[1] = Thiobarbituric acid reactive substances (TBARS/TBA) assay of oxidative rancidity; conditions: for TBA value: mean for entire 14 day study period, 80% oxygen MAP, 2° C
Excerpt: (§1) Thiobarbituric acid assay (TBA) values and color of ground beef in 80% oxygen modified atmosphere packaging were examined. The additive compositions used for each treatment are identified in Table 3.
(§2) Co., of Troy Ohio) with a 0.60 cm plate and finely ground using a 0.32 cm plate. The MM, vitamin E and STP were manually mixed with the meat. Meat portions of about 130 grams each were placed in vacuum pouches. […] The meat samples were packaged in PVC-wrapped containers in 80% oxygen MAP (gas cylinder containing 80% oxygen and 20% carbon dioxide available from Praxair Distribution of Salt Lake City, Utah) to simulate retail packaging conditions and held for 14 days at 2° C., which is essentially the same as conventional retail packaging for ground beef. Thiobarbituric acid assay (TBA) and color readings were taken after 1, 4, 7 and 14 days.
[…]. Oxidation of fat-containing foods leads to the formation of malondialdehyde or derivates of this compound. […]. Duplicate samples (0.5 g) were mixed with 2.5 ml of solution containing 0.375% TBA (Sigma Chem. Co. of St. Louis, Mo.), 15% trichloroacetic acid (TCA) (Mallinckrodt Baker, Inc. of Paris, Ky.) and 0.25 N hydrochloric acid (HCl). The samples were heated for 10 minutes in a boiling water bath (100° C.) to develop a pink color, cooled in tap water and centrifuged (Sorvall Instruments, Model RC 5C, DuPont, Wilmington, Del.) at 6000 rpm for 10 minutes. The absorbance of the supernatant was measured spectrophotometrically (Spectronic 21D, Milton Roy, Rochester, N.Y.) at 532 nm against a blank that contained all of the reagents minus the meat. The malonaldehyde (MDA) concentration was calculated using an extinction coefficient of 1.56×10^5 M-cm^−1. The MDA concentration was converted to TBA number (mg MDA/kg sample) according to Equation (I): [formula] or to TBA number (parts per million) according to Equation (II): TBA number (ppm)=Sample A532×2.77 (II)
Samples were taken from the exterior surface and the interior portions of the meat and analyzed for rancidity using TBA analysis.

[2] = Hunter color redness (a*) measurement
Excerpt: as §1, §2
The Hunter measurement standard uses the following scales: L=lightness, a=green and red and b=blue and yellow. The L*, a* and b* values were measured using a Hunter Lab Miniscan portable colorimeter (Reston, Va.), standardized using a white and black standard tile. The hue angle was calculated using the formula: hue angle=tan^−1(b*/a*).
Larger hue angles are associated with less red color, where hue angle=0 is red and hue angle=90 is yellow. The raw samples were scored for color, where 1=purple, 2=reddish purple, 3=bright red, 4=tan and 5=brown.

Molecule: O=P(O)(O)OP(=O)(O)OP(=O)(O)O [STP, sodium tripolyphosphate]
- TBA values ([1]; 0.25% STP and 0.5% STP, 7 and 14 days following packaging, FIG. 1b): low TBA values
- TBA values compared with control ([1]; 0.25% and 0.5% STP, 14 days following packaging): significantly lower
- TBA values compared with 0.25% STP treatment group ([1]; 0.5% STP, 14 days): significantly lower
- TBA value ([1]; STP 0.25% by weight of meat): 0.65 b
- TBA value ([1]; STP 0.5% by weight of meat): 0.33 c
- TBA values ([1]; higher level of STP (0.5%), after 14 days of storage): less than 1
- TBA values (effectiveness compared with 0.5% STP) ([1]; lower level of STP (0.25%), after 14 days of storage): not as effective
- TBA values compared with treatments with vitamin E ([1]; p<0.05): lower
- red color compared with 0.25% STP and controls ([2]; 0.5% STP, after 14 days, FIG. 2b): significantly more red color
- color stability of raw ground beef ([2]; MM more than STP): dramatically increased

Molecule: vitamin E [Vit E]
- TBA value ([1]; Vit E 50 ppm in ethanol): 1.67 a
- TBA value ([1]; Vit E 50 ppm in mineral oil): 1.71 a
- TBA value ([1]; Vit E 100 ppm in ethanol): 1.61 a
- TBA value ([1]; Vit E 100 ppm in mineral oil): 1.74 a
- TBA values compared with control ([1]; both vitamin E preparations (mineral oil, ethanol)): not significantly different from the control
- antioxidant effects (TBA values) ([1]; vitamin E in mineral oil or in ethanol, FIG. 1c, 1d): no antioxidant effects
- a* values ([2]; highest level of vitamin E in ethanol, by 14 days): lowest a* values
- red color compared with controls ([2]; vitamin E in mineral oil, after 7 days): significantly less red in color than the controls
- red color compared with control ([2]; vitamin E in oil or in ethanol, FIG. 2c, 2d): did not exhibit any more red color than control samples
